Experimental data as given in patent US20260144796A1, “Compounds and Methods for Improving Health” (Acurx Pharmaceuticals, Inc., priority 2022, published 2026).
Converted amounts (≈) assume the structure as drawn.

Columns and labels:
Enterococcus pseudoavium = test: MIC determination, stool Firmicute isolates; type: cell-based; conditions: N=1
gut microbiome [1] = test: Phase 1 healthy volunteer study, gut microbiome (metagenomics, qPCR); type: in vivo, human; conditions: for Proportion of isolated Firmicutes, Erysipelotrichaceae: baseline 2%; for Proportion of isolated Firmicutes, Other: baseline 4%; for Proportion of isolated Firmicutes, Lachnospiraceae: baseline 26%; for Proportion of isolated Firmicutes, Ruminococcaceae: baseline 68%
gut microbiome [2] = test: Phase 2a CDI clinical trial, gut microbiome (metagenomics); type: in vivo, human; conditions: CDI patients; for Proportion of isolated Firmicutes, Peptostreptococcaceae: baseline 2%; for Proportion of isolated Firmicutes, Other: baseline 5%; for Proportion of isolated Firmicutes, Ruminococcaceae: baseline 7%; for Proportion of isolated Firmicutes, Streptococcaceae: baseline 13%; for Proportion of isolated Firmicutes, Erysipelotrichaceae: baseline 18%; for Proportion of isolated Firmicutes, Lachnospiraceae: baseline 30%
Description: Phase 2a of this trial was an open label cohort of 10 subjects from study centers in the United States. In this cohort, 10 patients with diarrhea caused by mild or moderate C. difficile diagnosed via toxin EIA+ were treated with ibezapolstat 450 mg orally, twice daily for 10 days. All patients were followed for recurrence for 28±2 days. Stool was collected during course of therapy and at follow up. Patient fecal samples were evaluated for C. difficile culture and microbiome changes. […] Favorable microbiome changes included overgrowth of Actinobacteria and Firmicutes phylum species while on therapy. These findings support that microbiome effects may be predictive of beneficial patient outcomes including low rates of recurrence.
Phase 2a of this trial was an open label cohort of 10 subjects from study centers in the United States. In this cohort, 10 patients with diarrhea caused by mild or moderate C. difficile diagnosed via toxin EIA+ were treated with ibezapolstat 450 mg orally, twice daily for 10 days. Stool was collected during the course of therapy and at follow up.
Stool DNA was extracted using a DNAeasy Power Soil Pro kit (Qiagen, catalog number 1288-100) in a QiaCube automated DNA extraction system as previously described. (Garey K W, et al. A randomized, double-blind, placebo-controlled, single and multiple ascending dose Phase 1 study to determine the safety, pharmacokinetics and food and faecal microbiome effects of ibezapolstat administered orally to healthy subjects. J Antimicrob Chemother 2020; 75 (12): 3635-3643). Shotgun metagenomic sequencing was carried out at the University of Houston Sequencing and Gene Editing Core (Houston, TX USA) using the Nextera DNA Flex Library Prep Kit for DNA library preparation and an Illumina NextSeq 500 platform for sequencing. CLC Genomic Workbench version 12 (Qiagen) was used for metagenomic assembly and creation of the abundance table.
16S rRNA sequencing was performed to characterize microbial taxonomy as described in Gonzales-Luna 2021. The V3-V4 region of the 16S rRNA gene was sequenced using an Illumina-based sequencing platform with a minimum of 15,000 reads per sample to assess the gut microbiome community structure. Quality filtered sequence reads with at least 97% similarity were clustered into Operational Taxonomic Units (OTUs) and representative sequences from each OTU were assigned a taxonomic identity at the species level by searching against the NCBI 16S rRNA sequence database (release date Sep. 1, 2018) using NCBI BLAST+ package v2.8.1 2018.
The DNA extracted from fecal samples previously used for 16S rRNA sequencing was shotgun metagenome sequenced using an Illumina-based platform for analysis of microbiome functional genes. The functional gene profiling of the shotgun metagenome was performed using HUMAnN2 v0.11.2 pipeline.35 In the preprocessing step, quality filtering of sequencing reads was performed and followed by screening and removal of contaminant host (human) reads. Trimmomatic v0.38 was used for the filtering and trimming of raw sequence data with the default cut-off settings. The reads were searched against a human genome database in paired-end mode using bowtie2 algorithm and were discarded if they were mapped to the database. To obtain the gene family profiles, these quality-controlled metagenome sequences were first searched against a nucleotide database (ChocoPhlAn) using bowtie2 and then against a protein database (UniRef90) using diamond. All the identified gene families were annotated using UniRef90 and pathways using MetaCyc identifiers.

[3] = healthy volunteers, 450 mg twice daily 10 days, day 3
[4] = healthy volunteers, 450 mg twice daily 10 days, day 5
[5] = healthy volunteers, 450 mg twice daily 10 days, day 8
[6] = healthy volunteers, 450 mg twice daily 10 days, day 10
[7] = healthy volunteers, 450 mg twice daily 10 days, day 12
[8] = 450 mg orally twice daily 10 days, day 3
[9] = 450 mg orally twice daily 10 days, day 5
[10] = 450 mg orally twice daily 10 days, day 8
[11] = 450 mg orally twice daily 10 days, day 10
[12] = 450 mg orally twice daily 10 days, day 12

O=c1[nH]c(NCc2ccc(Cl)c(Cl)c2)nc2ncn(CCN3CCOCC3)c12 [Ibezapolstat, 2-((3,4-dichlorobenzyl)amino)-7-(2-morpholinoethyl)-1,7-dihydro-6H-purin-6-one]
MIC50 (Enterococcus pseudoavium): 100 mg/L (≈ 236 µM) | amount of C. coccoides (Clostridium cluster XIVa), qPCR (gut microbiome [1]; healthy volunteers, 450 mg twice a day, over 12 days): increased | Proportion of isolated Firmicutes, Streptococcaceae (gut microbiome [1]; [3]): 27% | Proportion of isolated Firmicutes, Veillonellaceae (gut microbiome [1]; [3]): 3% | Proportion of isolated Firmicutes, Erysipelotrichaceae (gut microbiome [1]; [3]): 4% | Proportion of isolated Firmicutes, Other (gut microbiome [1]; [3]): 6% | Proportion of isolated Firmicutes, Lachnospiraceae (gut microbiome [1]; [3]): 23% | Proportion of isolated Firmicutes, Ruminococcaceae (gut microbiome [1]; [3]): 37% | Proportion of isolated Firmicutes, Streptococcaceae (gut microbiome [1]; [4]): 43% | Proportion of isolated Firmicutes, Erysipelotrichaceae (gut microbiome [1]; [4]): 7% | Proportion of isolated Firmicutes, Other (gut microbiome [1]; [4]): 9% | Proportion of isolated Firmicutes, Lachnospiraceae (gut microbiome [1]; [4]): 21% | Proportion of isolated Firmicutes, Ruminococcaceae (gut microbiome [1]; [4]): 20% | Proportion of isolated Firmicutes, Lactobacilloae (gut microbiome [1]; [5]): 12% | Proportion of isolated Firmicutes, Streptococcaceae (gut microbiome [1]; [5]): 49% | Proportion of isolated Firmicutes, Erysipelotrichaceae (gut microbiome [1]; [5]): 7% | Proportion of isolated Firmicutes, Other (gut microbiome [1]; [5]): 9% | Proportion of isolated Firmicutes, Lachnospiraceae (gut microbiome [1]; [5]): 16% | Proportion of isolated Firmicutes, Ruminococcaceae (gut microbiome [1]; [5]): 7% | Proportion of isolated Firmicutes, Lactobacilloae (gut microbiome [1]; [6]): 5% | Proportion of isolated Firmicutes, Streptococcaceae (gut microbiome [1]; [6]): 41% | Proportion of isolated Firmicutes, Erysipelotrichaceae (gut microbiome [1]; [6]): 18% | Proportion of isolated Firmicutes, Other (gut microbiome [1]; [6]): 9% | Proportion of isolated Firmicutes, Lachnospiraceae (gut microbiome [1]; [6]): 24% | Proportion of isolated Firmicutes, Ruminococcaceae (gut microbiome [1]; [6]): 3% | Proportion of isolated Firmicutes, Lactobacilloae (gut microbiome [1]; [7]): 6% | Proportion of isolated Firmicutes, Streptococcaceae (gut microbiome [1]; [7]): 14% | Proportion of isolated Firmicutes, Erysipelotrichaceae (gut microbiome [1]; [7]): 25% | Proportion of isolated Firmicutes, Other (gut microbiome [1]; [7]): 5% | Proportion of isolated Firmicutes, Lachnospiraceae (gut microbiome [1]; [7]): 47% | Proportion of isolated Firmicutes, Ruminococcaceae (gut microbiome [1]; [7]): 4% | Actinobacteria abundance after starting treatment (gut microbiome [1]; healthy volunteers, primarily Bifidobacteriales or Coriobacteriales, persisted for the entire dosing period): increased in abundance | microbiome profile of treated subjects (gut microbiome [1]; phase 1 healthy volunteer study, treatment over 10 days, shotgun metagenomic sequencing): larger proportion of Actinobacteria and Firmicute Phylum | Proportion of isolated Firmicutes, Eubacteriales Family XIII (gut microbiome [2]; [8]): 2% | Proportion of isolated Firmicutes, Peptostreptococcaceae (gut microbiome [2]; [8]): 1% | Proportion of isolated Firmicutes, Other (gut microbiome [2]; [8]): 9% | Proportion of isolated Firmicutes, Ruminococcaceae (gut microbiome [2]; [8]): 25% | Proportion of isolated Firmicutes, Streptococcaceae (gut microbiome [2]; [8]): 3% | Proportion of isolated Firmicutes, Erysipelotrichaceae (gut microbiome [2]; [8]): 24% | Proportion of isolated Firmicutes, Lachnospiraceae (gut microbiome [2]; [8]): 37% | Proportion of isolated Firmicutes, Eubacteriales Family XIII (gut microbiome [2]; [9]): 1% | Proportion of isolated Firmicutes, Other (gut microbiome [2]; [9]): 10% | Proportion of isolated Firmicutes, Ruminococcaceae (gut microbiome [2]; [9]): 38% | Proportion of isolated Firmicutes, Streptococcaceae (gut microbiome [2]; [9]): 1% | Proportion of isolated Firmicutes, Erysipelotrichaceae (gut microbiome [2]; [9]): 10% | Proportion of isolated Firmicutes, Lachnospiraceae (gut microbiome [2]; [9]): 38% | Proportion of isolated Firmicutes, Eubacteriales Family XIII (gut microbiome [2]; [10]): 3% | Proportion of isolated Firmicutes, Peptostreptococcaceae (gut microbiome [2]; [10]): 5% | Proportion of isolated Firmicutes, Other (gut microbiome [2]; [10]): 9% | Proportion of isolated Firmicutes, Ruminococcaceae (gut microbiome [2]; [10]): 30% | Proportion of isolated Firmicutes, Streptococcaceae (gut microbiome [2]; [10]): 4% | Proportion of isolated Firmicutes, Erysipelotrichaceae (gut microbiome [2]; [10]): 9% | Proportion of isolated Firmicutes, Veillonellaceae (gut microbiome [2]; 450 mg orally twice daily 10 days, day 8, baseline 19%): 5% | Proportion of isolated Firmicutes, Lachnospiraceae (gut microbiome [2]; [10]): 33% | Proportion of isolated Firmicutes, Eubacteriales Family XIII (gut microbiome [2]; [11]): 5% | Proportion of isolated Firmicutes, Peptostreptococcaceae (gut microbiome [2]; [11]): 4% | Proportion of isolated Firmicutes, Other (gut microbiome [2]; [11]): 8% | Proportion of isolated Firmicutes, Ruminococcaceae (gut microbiome [2]; [11]): 26% | Proportion of isolated Firmicutes, Streptococcaceae (gut microbiome [2]; [11]): 5% | Proportion of isolated Firmicutes, Erysipelotrichaceae (gut microbiome [2]; [11]): 17% | Proportion of isolated Firmicutes, Lachnospiraceae (gut microbiome [2]; [11]): 35% | Proportion of isolated Firmicutes, Eubacteriales Family XIII (gut microbiome [2]; [12]): 4% | Proportion of isolated Firmicutes, Peptostreptococcaceae (gut microbiome [2]; [12]): 6% | Proportion of isolated Firmicutes, Other (gut microbiome [2]; [12]): 10% | Proportion of isolated Firmicutes, Ruminococcaceae (gut microbiome [2]; [12]): 24% | Proportion of isolated Firmicutes, Streptococcaceae (gut microbiome [2]; [12]): 2% | Proportion of isolated Firmicutes, Erysipelotrichaceae (gut microbiome [2]; [12]): 6% | Proportion of isolated Firmicutes, Lachnospiraceae (gut microbiome [2]; [12]): 44% | Actinobacteria abundance after starting treatment (gut microbiome [2]; primarily Coriobacteriales): increased in abundance
